Laboratory results published in patent US7745604B2, “Upstream control elements of the proopiomelanocortin gene and their use” (Oregon Health & Science University, priority 2001, dated 2010).
“And” between values parts separate entries of the source, which are not always exact repeats. Equal values may be shown once. “Also recorded” adds a separate entry of the source. Read-outs that look alike come from different tables or passages of the source. Non-standard residues stand in square brackets, D forms with d. No end group written: not given here.

Assays:
[1] = test system: POMC neurons; assay: Whole cell recordings of membrane potential of EGFP-labeled POMC neurons in ARC slices; assay type: cell-based, mouse
[2] = test system: POMC neurons; assay: Action potential frequency (firing rate) of POMC neurons, whole cell or loose cell-attached recordings; assay type: cell-based, mouse; conditions: for increase in frequency of action potentials (firing rate) in POMC neurons: fenfluramine 20 μM, loose-cell-attached, n=3, reversed with washout
[3] = test system: GABAergic IPSCs in POMC neurons; assay: GABAergic IPSCs recorded in POMC neurons of ARC slices; assay type: cell-based, mouse
[4] = test system: hypothalamic explants; conditions: Y2A; cited from earlier work
[5] = test system: non-POMC neurons in the arcuate nucleus; assay: Membrane potential of non-fluorescent (non-POMC) neurons in the ARC; assay type: cell-based, mouse
[6] = test system: c-fos expression in the arcuate nucleus; assay: c-fos expression in the lateral arcuate after IP injection, rat; assay type: in vivo; conditions: single IP injection
[7] = test system: c-fos expression in the arcuate nucleus; assay: c-fos expression in arcuate nucleus of Pomc-EGFP mice after IP injection; assay type: in vivo, mouse; conditions: IP 5 μg/100 g, 2 hours
Source text: Data were obtained from 5 mice in each group. For the Pomc-EGFP mice 5 anatomically matched arcuate nucleus sections (Franklin et al., The Mouse Brain in Stereotaxic Coordinates (Academic Press, San Diego, 1997) were counted from each animal, and images acquired using a Leica TSC confocal microscope (Grove et al., Neuroscience 100:731-40, 2000).

## CCNC(C)Cc1cccc(C(F)(F)F)c1 (stereo not drawn) [Fenfluramine]
[1]; fenfluramine, whole cell, dose dependent, n=4-8 per dose
  effect on membrane potential of POMC neurons: depolarized POMC neurons
[2]
  increase in frequency of action potentials (firing rate) in POMC neurons: two fold increase
[2]; listed as d-FEN
  increase in frequency of action potentials (firing rate) in POMC neurons: doubling

## Clc1cncc(N2CCNCC2)n1 [MK 212, 6-Chloro-2-(1-piperazinyl)pyrazine]
[1]
  effect on resting membrane potential of POMC neurons: depolarized POMC neurons

## NC1=N[C@H](O)[C@H]2[C@H]3O[C@]4(O)O[C@@H]([C@@H](O)[C@@]2(N1)[C@@H]4O)[C@]3(O)CO [TTX, tetrodotoxin]
[3]
  effect on large amplitude IPSCs: abolished large IPSCs

## Clc1cccc(N2CCNCC2)c1 [mCPP, 1-(3-Chlorophenyl)piperazine]
[1]
  effect on resting membrane potential of POMC neurons: depolarized POMC neurons

## NCCc1c[nH]c2ccc(O)cc12 [serotonin]
[1]; serotonin receptor agonists bath-applied four minutes, whole cell, n=4-8 per dose
  effect on resting membrane potential of POMC neurons: increased the resting membrane potential (depolarized)

## D-Trp^8-γMSH (YVMGHFR[dW]DRFG)
[1]; D-Trp8-γMSH 7 nM
  POMC neurons hyperpolarized of cells tested: 9 of 15
[1]; D-Trp8-γMSH, FIG. 4c
  effect on membrane potential of POMC neurons: hyperpolarizes POMC neurons
[3]; D-Trp8-γMSH 7 nM
  POMC neurons with increased IPSC frequency of cells tested: 3 of 4
[3]; D-Trp8-γMSH 7 nM, FIG. 4b
  effect on frequency of GABAergic IPSCs in POMC neurons: increases the frequency of GABAergic IPSCs
[2]; D-Trp8-γMSH 7 nM
  effect on frequency of action potentials: decreased the frequency of action potentials

## Ghrelin: known appetite stimulant; agent known to increase feeding, caloric intake, and appetite (GSSFLSPEHQRVQQRKESKKPPAKLQPR; ends and bridges not checked; UniProt Q9UBU3 24-51, looked up)
[1]; Ghrelin 50 nM, three minutes, whole cell, p<0.03
  mean hyperpolarization of POMC neurons: 1.47±0.7 mV
[1]; Ghrelin, whole cell, FIG. 12b, 34 experiments
  effect on membrane potential of POMC neurons: mildly hyperpolarizes POMC neurons
[3]; Ghrelin 50 nM, whole cell
  effect on frequency of IPSCs in POMC neurons: increase in the frequency of IPSCs; also recorded: increases the frequency of spontaneous synaptic GABA release onto POMC neurons
[2]; Ghrelin 50 nM, loose-cell-attached mode, reverses with washout
  decrease of action potential firing rate of POMC neurons: 50%

## N-acetyl (Leu^28, Leu^31) NPY (24-36) [Y2A]
[3]; Y2A, n=8, P<0.004
  reduction of IPSC frequency: 44.4±9.3%
[4]
  NPY release from hypothalamic explants: significantly decreased NPY release
  α-MSH release from hypothalamic explants: increase in α-MSH release

## NPY
[1]; NPY, n=3, all POMC neurons tested
  average hyperpolarization of POMC neurons: 9±6 mV
[3]
  cells in which IPSCs were still inhibited in the presence of tetrodotoxin (TTX): 6 of 6
[3]; NPY 100 nM
  decrease of frequency of GABAergic IPSCs: 55%
  time to decrease of IPSC frequency: ≤ 3 min
[3]; NPY, FIG. 4a
  effect on frequency of mini IPSCs in POMC neurons: decreases the frequency of mini IPSCs

## PYY3-36
[1]; PYY3-36, whole cell
  POMC neurons depolarized of cells tested: 19 of the 22
[2]; PYY3-36 10 nM, loose cell-attached, reversible, n=8
  increase in frequency of action potentials: 5 fold
[2]; PYY3-36 10 nM, whole-cell, n=22, P<0.05
  increase in frequency of action potentials over control: 93%
[5]; PYY3-36 25 nM, n=5, P<0.004
  hyperpolarization of unidentified, presumably NPY-containing, non-POMC neurons: 5.2±1.16 mV
[6]
  increase in number of cells positive for c-fos vs saline: 2 fold
[7]
  increase in number of arcuate cells positive for c-fos vs saline: 1.8 fold
  increase in proportion of POMC neurons that express c-fos vs saline: 2.6 fold
[7]; n=5, P<0.05
  number of arcuate cells positive for c-fos: 250±40

## leptin: adipostatic hormone
[1]; 100 nM leptin, n=45
  mean±s.e.m. depolarization: 9.7±1.2 mV
[1]; leptin 100 nM, slow voltage ramps
  reversal potential of small inward current causing depolarization: approximately −20 mV
[1]; leptin 0.1-100 nM
  POMC cells depolarized of cells tested: 72 of 77
  depolarization of POMC cells: 3-30 mV
  time to depolarization after addition: 1 to 10 min and 2 to 10 min
[3]
  cells in which IPSCs were still inhibited in the presence of tetrodotoxin (TTX): 3 of 5
[3]; leptin 100 nM
  POMC cells with decreased IPSC frequency of cells tested: 5 out of 15
[3]; leptin 100 nM, FIG. 3d, 5 cells
  effect on frequency of IPSCs in POMC cells: decreased the frequency of IPSCs
[3]; leptin 100 nM, in responding cells
  decrease of frequency of GABAergic IPSCs: 25%
[2]; leptin, FIG. 3a, 77 POMC neurons
  effect on frequency of action potentials: increases the frequency of action potentials
[5]; leptin, 13 cells tested
  adjacent non-fluorescent cells with no effect: 5 and 5 of 13
  non-POMC ARC neurons depolarized: 3
  non-fluorescent ARC neurons hyperpolarized: 5

## met-enkephalin
[1]
  effect on membrane potential of POMC neurons: hyperpolarizes POMC neurons
[2]
  effect on spontaneous action potentials of POMC cells: inhibits all action potentials; also recorded: prevented spontaneous action potential generation

## picrotoxin
[3]
  effect on IPSCs: blocked all IPSCs
